7 compounds from US20240398781A1, “SPIROCYCLIC CYCLIC MODULATORS OF CHOLESTEROL BIOSYNTHESIS AND THEIR USE FOR PROMOTING REMYELINATION” (GENENTECH, INC., priority 2021, published 2024) can be followed below.

One test concerns EpiSC-derived OPCs. Kind of test: In vitro phenotypic screening of OPCs (MBP staining, high-content imaging). As to conditions: Mus musculus, 72 h, percentage of MBP+ oligodendrocytes, 3 days, 0.5 nM to 1000 nM; read-out: OPC EC50. Format: cell-based, mouse. A digest of the protocol: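 EpiSC-derived mouse OPCs seeded at 150,000/cm^2 on laminin in N2B27 without growth factors, treated 3 days at 37° C. with compound (8 points, 1000 nM to 0.5 nM). Fixed cells stained for MBP and DAPI and imaged; percentage of MBP+ oligodendrocytes fitted by Hill equation for EC50.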

The test system of test [1] is EBP (zymostenol accumulation in EpiSC-derived OPCs). The test can be described thus: GC/MS-based sterol profiling, zymostenol accumulation in OPCs. Type of test: cell-based, mouse. The note with it: Mus musculus, 24 h, EpiSC-derived OPCs, 24 hr treatment, 8 doses from 0.15 nM to 333 nM; read-out: Zymostenol GCMS EC50. A digest of the protocol: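 EpiSC-derived OPCs (100,000/well) were treated 24 h in N2B27 without growth factors. Sterols were TMS-derivatized and analysed by GC/MS full-scan EI, quantified against cholesterol-d7. Zymostenol was normalized to the level after 24 h with 100 nM positive control reference.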

The target in a further test is human EBP (Homo sapiens (Human), UniProt Q15125). The test can be described thus: Competition binding assay (SPA, [3H]-Ifenprodil) to determine compound affinity to EBP. As to conditions: [3H]-Ifenprodil 10 nM, HEK293 membrane overexpressing human EBP, Ki=IC50/(1+[L]/Kd); read-out: hEBP SPA Ki. Summed up:
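Membranes from HEK293 cells overexpressing human EBP, on SPA beads (0.3 mg beads, 5 µg membrane/well) in Tris/MgCl2/EDTA buffer pH 7.5 with 0.01% BSA and 0.1% DMSO, competed against [3H]-ifenprodil for 3 h to equilibrium. Compounds were tested at 1 µM single dose or 0.06 nM–5 µM; IC50 came from nonlinear fit, and Ki=IC50/(1+[L]/Kd).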

Chain of human EBP (Q15125 whole entry): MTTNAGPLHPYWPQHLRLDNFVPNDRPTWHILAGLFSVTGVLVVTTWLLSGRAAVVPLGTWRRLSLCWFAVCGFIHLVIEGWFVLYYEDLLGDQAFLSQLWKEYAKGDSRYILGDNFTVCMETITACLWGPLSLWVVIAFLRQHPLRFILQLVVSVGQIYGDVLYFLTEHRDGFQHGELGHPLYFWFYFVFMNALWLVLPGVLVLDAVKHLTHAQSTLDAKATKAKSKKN

By EC50 is commonly meant the concentration needed to bring the measured effect to its halfway point. As a reminder, the Ki is a measure of affinity in units of concentration, obtained from inhibition or displacement. In the case of `O=S1(=O)CC2(CCN(C3CCN(c4ncc(C(F)(F)F)cc4F)CC3)C2)C1` [Compound 32, 6-(1-(3-fluoro-5-(trifluoromethyl)pyridin-2-yl)piperidin-4-yl)-2-thia-6-azaspiro[3.4]octane 2,2-dioxide], the EC50 came to 60 nM in the test with EpiSC-derived OPCs and 7 nM in test [1]. The Ki on human EBP amounted to 24 nM.
Taken in the same sequence, the figures for `CC(C)n1nc(-c2cncc(OC(F)F)c2)cc1[C@H]1CC[C@H](N2CCC3(C2)CS(=O)(=O)C3)CC1` [Compound 33A, 6-((1r,4r)-4-(3-(5-(Difluoromethoxy)pyridin-3-yl)-1-isopropyl-1H-pyrazol-5-yl)cyclohexyl)-2-thia-6-azaspiro[3.4]octane 2,2-dioxide] were 29 nM, 7.6 nM and 37 nM.
Consider `CC(C)n1nc(-c2cncc(OC(F)F)c2)cc1[C@H]1CC[C@@H](N2CCC3(C2)CS(=O)(=O)C3)CC1` [Compound 33B, (Cis)-6-(4-(3-(5-(Difluoromethoxy)pyridin-3-yl)-1-isopropyl-1H-pyrazol-5-yl)cyclohexyl)-2-thia-6-azaspiro[3.4]octane 2,2-dioxide], for which the EC50 in the test on EpiSC-derived OPCs is 53 nM; in test [1], 9.8 nM. Further, the Ki at human EBP was found to be 33 nM.
On the same counts, the results for `CC(C)n1nc(N2CC(F)(F)C2)cc1[C@H]1CC[C@H](N2CCC3(C2)CS(=O)(=O)C3)CC1` [Compound 35, 6-((1r,4r)-4-(3-(3,3-Difluoroazetidin-1-yl)-1-isopropyl-1H-pyrazol-5-yl)cyclohexyl)-2-thia-6-azaspiro[3.4]octane 2,2-dioxide] are 210 nM, 45 nM and 180 nM.
Take `O=S1(=O)CC2(CCN([C@H]3CC[C@@H](c4cc(C(F)(F)F)nn4C4CC4)CC3)CC2)C1` [Compound 40A, 7-((1r,4r)-4-(1-cyclopropyl-3-(trifluoromethyl)-1H-pyrazol-5-yl)cyclohexyl)-2-thia-7-azaspiro[3.5]nonane 2,2-dioxide]: the EC50 in the test with EpiSC-derived OPCs is 22 nM; in test [1], 4 nM. The Ki at human EBP was found to be 32 nM.
For `O=S1(=O)CC2(CCN([C@H]3CC[C@H](c4cc(C(F)(F)F)nn4C4CC4)CC3)CC2)C1` [Compound 40B, 7-((1s,4s)-4-(1-cyclopropyl-3-(trifluoromethyl)-1H-pyrazol-5-yl)cyclohexyl)-2-thia-7-azaspiro[3.5]nonane 2,2-dioxide], the EC50 in the test with EpiSC-derived OPCs is 71 nM; in test [1], 17 nM. For the same compound, on human EBP, the Ki was determined as 47 nM.
With `Cc1cc(C(F)(F)F)cnc1[C@H]1CC[C@H](N2CCC3(C2)CS(=O)(=O)C3)CC1` [Compound 47B, 6-((1r,4r)-4-(3-methyl-5-(trifluoromethyl)pyridin-2-yl)cyclohexyl)-2-thia-6-azaspiro[3.4]octane 2,2-dioxide], the EC50 in the test with EpiSC-derived OPCs was 20 nM; in test [1], 4.1 nM. The Ki on human EBP was determined as 16 nM.
